Holding throughout (type): cell-based
The subject of test [1] is human B cell lymphoblastoid cell line Ramos. The experiment in a line: Caspase cascade activation in Ramos cells. The conditions noted are these: 48 h incubation, read-out: caspase potency EC50 RAMOS. Put shortly: (§1)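 48 h compound exposure (0.016–10 μM final), 37 °C, 5% CO2; add 14 μM Ac-DEVD-R110 in lysolecithin/DTT/PIPES pH 7.2; RT 3 h; fluorescence 485/530 nm. Net RFU vs untreated control → EC50 by sigmoidal fit.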

Test [2] deals with human hepatocellular carcinoma cell line SNU398. Put plainly: Caspase cascade activation in SNU398 cells. The conditions noted are these: SNU-398, 48 h incubation, read-out: caspase potency EC50 SNU398. Put shortly: as §1
Test [3] deals with human Burkitt's lymphoma cell line Namalwa. Put plainly: Caspase cascade activation in Namalwa cells. The conditions noted are these: Burkitts lymphoma cell, 48 h incubation, read-out: caspase potency EC50 Namalwa. An outline of the steps:
as §1

Test [4] deals with human cancer cell line H1299. Put plainly: Caspase cascade activation in H1299 cells. The conditions noted are these: NCI-H1299, 48 h incubation, read-out: caspase potency EC50 H1299. As to the method: Human breast cancer cell lines T-47D, human hepatocellular carcinoma cell line SNU398, human colon carcinoma cell line HCT116, human cancer cell line H11299, human Burkitt's lymphoma cell line Namalwa, human lymphoma cell line Raji, and human B cell lymphoblastoid cell line Ramos were grown according to media component mixtures designated by American Type Culture Collection+10% FCS (Invitrogen Corporation), in a 5% CO2-95% humidity incubator at 37° C. T-47D and H1299 cells were maintained at a cell density between 50 and 80% confluency at a cell density of 0.1 to 0.6×10^6 cells/mL. Cells were harvested at 600×g and resuspended at 0.65×10^6 cells/mL into appropriate media+10% FCS. An aliquot of 22.5 μL of cells was added to a well of a 384-well microtiter plate containing 2.5 μL of a 10% DMSO in RPMI-1640 media solution containing 0.16 to 100 μM of 6-(3,4-dimethoxyphenyl)-3-(2-methoxyphenyl)-[1,2,4]triazolo[3,4-b][1,3,4]thiadiazole or other test compound (0.016 to 10 μM final). An aliquot of 22.5 μL of cells was added to a well of a 384-well microtiter plate containing 2.5 μL of a 10% DMSO in RPMI-1640 media solution without test compound as the control sample. The samples were mixed by agitation and then incubated at 37° C. for 48 h in a 5% CO2-95% humidity incubator. After incubation, the samples were removed from the incubator and 25 μL of a solution containing 14 μM of N-(Ac-DEVD)-N′-ethoxycarbonyl-R110 (SEQ ID No.:1) fluorogenic substrate (Cytovia, Inc.; WO99/18856), 20% sucrose (Sigma), 20 mM DTT (Sigma), 200 mM NaCl (Sigma), 40 mM Na PIPES buffer pH 7.2 (Sigma), and 500 μg/mL lysolecithin (Calbiochem) was added. The samples were mixed by agitation and incubated at room temperature. Using a fluorescent plate reader (Model SPECTRAfluor Plus, Tecan), an initial reading (T=0) was made approximately 1-2 min after addition of the substrate solution, employing excitation at 485 nm and emission at 530 nm, to determine the background fluorescence of the control sample. After the 3 h incubation, the samples were read for fluorescence as above (T=3 h).
The Relative Fluorescence Unit values (RFU) were used to calculate the sample readings as follows: RFU(T=3h)−Control RFU(T=0)=Net RFU(T=3h)
The activity of caspase cascade activation was determined by the ratio of the net RFU value for 6-(3,4-dimethoxyphenyl)-3-(2-methoxyphenyl)-[1,2,4]triazolo[3,4-b][1,3,4]thiadiazole (Example I) or other test compound to that of control samples. The EC50 (nM) was determined by a sigmoidal dose-response calculation (Prism 3.0, GraphPad Software Inc.).

For test [5], the system named is Human breast cancer cell lines MX1. The experiment in a line: Inhibition of cell proliferation (GI50) in MX1 cells. The conditions noted are these: 48 h incubation. As to the method:
(§2) Human breast cancer cell lines T-47D, MX1 and MDAMB435, human colon carcinoma cell line HCT116, human leukemia cell line K562, human lymphoma cell line Raji, human B cell lymphoblastoid cell line Ramos, and human Burkitt's lymphoma cell line Namalwa were grown and harvested as in Example 14. An aliquot of […] of cells (4.4×10^4 cells/mL) was added to a well of a 96-well microtiter plate containing 5 μL of a 10% DMSO in RPMI-1640 media solution containing 10 nM to 100 μM of 6-(3,4-dimethoxyphenyl)-3-(2-methoxyphenyl)-[1,2,4]triazolo[3,4-b][1,3,4]thiadiazole (1 nM to 10 μM final). An aliquot of 45 μL of cells was added to a well of a 96-well microtiter plate containing 5 μL of a 10% DMSO in RPMI-1640 media solution without compound as the control sample for maximal cell proliferation (LMax). The samples were mixed by agitation and then incubated at 37° C. for 48 h in a 5% CO2-95% humidity incubator. After incubation, the samples were removed from the incubator and 25 μL of CellTiter-Glo™ reagent (Promega) was added. The samples were mixed by agitation and incubated at room temperature for 10-15 min. Plates were then read using a luminescent plate reader (Model SPECTRAfluor Plus, Tecan) to give Ltest values.
(§3) The samples were mixed by agitation and then incubated at 37° C. for 0.5 h in a 5% CO2-95% humidity incubator. After incubation, the samples were removed from the incubator and 25 μL of CellTiter-Glo™ reagent (Promega) was added. The samples were mixed by agitation and incubated at […] 10-15 min at room temperature in a 5% CO2-95% humidity incubator. Fluorescence was read as above, (LStart) defining luminescence for initial cell number used as baseline in GI50 determinations.
(§4) GI50 (dose for 50% inhibition of cell proliferation) is the concentration where [(LTest−LStart)/(LMax−LStart)]=0.5.

Test [6] relates to human colon carcinoma cell line HCT116. The experiment in a line: Caspase cascade activation in HCT116 cells. The conditions noted are these: HCT-116, 48 h incubation, read-out: caspase potency EC50 HCT116. An outline of the steps: as §1
In test [7] the test system is Human breast cancer cell lines T-47D. The experiment in a line: Inhibition of cell proliferation (GI50, CellTiter-Glo) in T-47D cells. The conditions noted are these: T47D cells, 48 h incubation. As to the method: as §2, §3, §4
On the technique in general: In ATP-based viability assays light output follows the ATP content of the culture.

Test [8] has the same test system. Put plainly: Caspase cascade activation (Ac-DEVD-R110 fluorogenic substrate) in T-47D cells. The conditions noted are these: T47D cells, 48 h incubation, read-out: caspase potency EC50 T47D. Put shortly: as §1
Test [9] has as its system Human breast cancer cell lines MDAMB435. The experiment in a line: Inhibition of cell proliferation (GI50) in MDAMB435 cells. The conditions noted are these: MDA MB 435 cells, 48 h incubation. As to the method: as §2, §3, §4
Test [10] has as its system human lymphoma cell line Raji. Put plainly: Caspase cascade activation in Raji cells. The conditions noted are these: RAJ1 cells, 48 h incubation, read-out: caspase potency EC50 RAJ1. An outline of the steps: as §1
Test [11] relates to human colon carcinoma cell line HCT116. The experiment in a line: Inhibition of cell proliferation (GI50) in HCT116 cells. The conditions noted are these: HCT 116 cells, 48 h incubation. As to the method:
as §2, §3, §4

Test [12] deals with human Burkitt's lymphoma cell line Namalwa. The experiment in a line: Inhibition of cell proliferation (GI50) in Namalwa cells. The conditions noted are these: Burkitts lymphoma cell, 48 h incubation. As to the method: as §2, §3, §4
Test [13] deals with human B cell lymphoblastoid cell line Ramos. Put plainly: Inhibition of cell proliferation (GI50) in Ramos cells. The conditions noted are these: 48 h incubation. As to the method: as §2, §3, §4
Test [14] relates to human leukemia cell line K562. Put plainly: Inhibition of cell proliferation (GI50) in K562 cells. The conditions noted are these: 48 h incubation. As to the method:
as §2, §3, §4

The subject of test [15] is human lymphoma cell line Raji. The experiment in a line: Inhibition of cell proliferation (GI50) in Raji cells. The conditions noted are these: 48 h incubation. As to the method:
as §2, §3, §4

SMILES strings stand for the structures.

In general, EC50 refers to the midpoint of the concentration-response curve. One may read the GI50 as the concentration giving 50% growth inhibition. A higher GI50 goes with lower sensitivity of the cells.

Turning to `CCc1cc(-c2nnc3sc(-c4ccc(C)cc4)nn23)n(C)n1` [A, 3-(3-Ethyl-1-methyl-1H-pyrazol-5-yl)-6-p-tolyl-[1,2,4]triazolo[3,4-b][1,3,4]thiadiazole], the half-maximal effective concentration (EC50) in test [1] is above 10000 nM; in [2] it was 1860 nM; in test [3], above 10000 nM; in test [4] it was 3160 nM; in test [6], 5450 nM; in [8] it was 3680 nM. The EC50 in test [10] was above 10000 nM. Further, the GI50 came to 4080 nM in [5], 2730 nM in test [7] and 253 nM in test [9].

As to `CCc1cc(-c2nnc3sc(-c4ccc(OC)cc4)nn23)n(C)n1` [C, 3-(3-Ethyl-1-methyl-1H-pyrazol-5-yl)-6-(4-methoxyphenyl)-[1,2,4]triazolo[3,4-b][1,3,4]thiadiazole], the EC50 is 566 nM in [1]; 1720 nM in test [2]; 574 nM in test [3]; 4570 nM in test [6]; 4030 nM in test [8]; above 10000 nM in [10]. The GI50 turned out to be 9000 nM in test [5] and 900 nM in test [7].

In the case of `COc1ccccc1-c1nnc2sc(-c3ccc(C)c(N)c3)nn12` [Entry 5, 6-(3-Amino-4-methylphenyl)-3-(2-methoxyphenyl)-[1,2,4]triazolo[3,4-b][1,3,4]thiadiazole], the GI50 in test [11] was determined as 107 nM; in [12], 21 nM; in [7] it was 22 nM. Also, the EC50 in [2] turned out to be 33 nM; in test [3] it was 18 nM; in test [6], 40 nM; in [8] it was 121 nM.

As to `COc1ccc(-c2nn3c(-c4ccccc4OC)nnc3s2)cc1N` [Entry 7, 6-(3-Amino-4-methoxyphenyl)-3-(2-methoxyphenyl)-[1,2,4]triazolo[3,4-b][1,3,4]thiadiazole], the GI50 was 83 nM in test [11], 14 nM in [12] and 100 nM in test [7]. The EC50 came out at 19 nM in [2], 18 nM in [3], 21 nM in test [6] and 284 nM in test [8].

As to `CCN(CC)c1ccc(-c2nn3c(-c4n[nH]c5c4CCC5)nnc3s2)cc1` [Entry K1, 6-(4-Diethylaminophenyl)-3-(1,4,5,6-tetrahydrocyclopenta[c]pyrazol-3-yl)-[1,2,4]triazolo[3,4-b][1,3,4]thiadiazole], the 50% growth inhibitory concentration (GI50) came out at 497 nM in test [11], 138 nM in test [12] and 167 nM in test [7]. Also, the EC50 in test [1] turned out to be 585 nM; in test [3], 580 nM; in test [6], 1020 nM; in [8], 636 nM; in [10], 617 nM.

Regarding `Cc1ccc(-c2nn3c(-c4n[nH]c5c4CCC5)nnc3s2)cc1` [Entry M1, 6-(4-Methylphenyl)-3-(1,4,5,6-tetrahydrocyclopenta[c]pyrazol-3-yl)-[1,2,4]triazolo[3,4-b][1,3,4]thiadiazole], the GI50 in test [11] came out at 89 nM; in test [12], 16 nM; in [7], 200 nM. Moreover, the EC50 in test [1] worked out at 40 nM; in [2], 34 nM; in test [3], 39 nM; in test [6], 67 nM; in test [8], 395 nM; in test [10] it was 81 nM.

With `CCOc1ccc(-c2nn3c(-c4ccccc4C)nnc3s2)cc1` [P, 6-(4-Ethoxyphenyl)-3-o-tolyl-[1,2,4]triazolo[3,4-b][1,3,4]thiadiazole], the GI50 is above 10000 nM in test [11]; 6420 nM in [13]; 7690 nM in test [12]; 3270 nM in [14]; 9740 nM in test [15]. Moreover, the EC50 is 5710 nM in [1]; 5550 nM in test [2]; above 10000 nM in test [3]; 5140 nM in test [4]; 5750 nM in [6]; 2370 nM in [8]. In addition, in test [10], the EC50 was above 10000 nM.

Source of the values: patent US7732468B2, “3-aryl-6-aryl-[ 1,2,4]triazolo[3,4-b][1,3,4]thiadiazoles and related compounds as activators of caspases and inducers of apoptosis and the use thereof” (Cytovia, Inc., priority 2006, dated 2010).
